Assay results as given in publication PMC7256776, “Pharmacokinetic Comparisons of Eight Active Components from Raw Farfarae Flos and Honey-Processed Farfarae Flos after Oral Administration in Rats by UHPLC-MS/MS Approaches” (Journal of Analytical Methods in Chemistry, 2020).
Like-named read-outs stand apart in the source and are kept apart here.

Tests used:
[1] = Pharmacokinetic study in rats after oral administration of R-FF or H-FF extract (UHPLC-MS/MS of serum); type: in vivo, SD rats; conditions: for eliminate rate (judged from t1/2 and MRT values): R-FF group; for double peak phenomena in serum concentration-time curve: both R-FF and H-FF, Figure 3; for AUC(0-inf) / AUC(0-t) / Cmax / Tmax / half-life / MRT last: male, SD, rat, serum, po, 140 g/kg; for AUC(0-inf) / AUC(0-t) / Cmax / Tmax / half-life / MRT last / C max / MRT0–t / T max / t 1/2: mean ± SD; for AUC(0-inf) / AUC(0-t) / Cmax / Tmax / half-life / C max / MRT0–t / T max / t 1/2: n = 6; for MRT last: n = 6, read-out: MRT0–t; for change of T1/2 in H-FF group compared to R-FF group / change of MRT0–t in H-FF group compared to R-FF group: oral, H-FF vs R-FF
Protocol: MS analysis was performed on a TSQ Quantis™ triple quadrupole mass spectrometer (Thermo Scientific™, Vanquish™, (Waltham, MA, USA)) equipped with an autosampler. Chromatographic separation was performed on a Thermo Hypersil GOLD C18 column (100 mm × 2.1 mm, 1.9 µm particles). The column temperature was maintained at 30°C. Through the Thermo Scientific™, TraceFinder™ software was acquired and processed. The mobile phase was composed of acetonitrile (A) and water (both containing 0.3% formic acid) (B) with a gradient elution program (0–5 min:10–19% acetonitrile, 5–8 min:19–25% acetonitrile, 8–28 min:25%–100% acetonitrile, 28–32 min: 100%–10%, and 32–34 min: 10%–10%). The system was re-equilibrated in the initial mobile phase 4.0 min before the next injection. The flow rate was set at 0.3 mL/min, and the injection volume was set as 2 μL.
The analytes were detected on a TSQ Quantis triple quadrupole mass spectrometer by selected reaction monitoring (SRM) equipped with a heated electrospray ionization source operated in negative ion modes. The parameters were set as follows: the sheath gas and the aux gas were set at 30 Arb and 10 Arb, respectively; the ion transfer tube temperature was maintained at 325°C; and the vaporizer temperature was set to 350°C.
5 μL of IS solution containing chloramphenicol 100 ng/ml and 795 μL of acetonitrile were added to a 100 μL drug serum sample for sedimentation of proteins. Subsequently, the 1.5 mL centrifuge tube containing mixture was vortexed for 5 min. After that, the mixture was centrifuged at 12,000 rpm for 20 min at 4°C. Finally, the supernatant fluid was removed and evaporated to dryness under a stream of nitrogen at 35°C. The dried residue was redissolved by 100 μL 50% methanol aqueous solution. And the supernatant prepared above was filtered through 0.22 μm membranes transferred to vials by the UHPLC-MS/MS system for data analysis.
12 adult male SD rats (weighing 250∼300 g) were used in pharmacokinetics experiments and randomly assigned to two groups: R-FF group and H-FF group. Before being administered R-FF or H-FF extract, all the rats fasted but with free access to water for 12 h. The R-FF or H-FF extract was orally administered to the rats (140 g/kg body weight). Aliquots of 0.3 ml blood samples were collected in 1.5 ml heparin lithium-anticoagulant tubes at (0.083, 0.166, 0.333, 0.5, 1, 2, 4, 6, 8, 12, 24, 36, and 48 h) via the postorbital venous plexus veins from each rat after oral administration. The blood sample was immediately centrifuged at 3500 rpm for 5 min, and the supernatant 100 μL serum was transferred into a new centrifuge tube and stored at −80°C until analysis.

[2] = type: in vitro ADME; conditions: rat plasma, IS 100 ng/mL, n = 3
Protocol: Short-term stability was calculated by keeping the QC samples at room temperature for 4 hours. Long-term stability was investigated by storing the same QC samples at −20°C in a refrigerator for 30 days. The freeze and thaw stability was determined by analyzing the same QC samples after 3 consecutive freeze-thaw (−20 to 20°C) cycles. The postpreparative stability was evaluated by keeping the QC samples at autosampler for 24 hours.

eliminate rate (judged from t1/2 and MRT values) [1]	double peak phenomena in serum concentration-time curve [1]	AUC(0-inf) ([1]; oral H-FF extract 140 g/kg) [µg·h/mL]	AUC(0-t) ([1]; oral H-FF extract 140 g/kg) [µg·h/mL]	Cmax ([1]; oral H-FF extract 140 g/kg) [ng/mL]	Tmax ([1]; oral H-FF extract 140 g/kg) [h]	half-life ([1]; oral H-FF extract 140 g/kg) [h]	MRT last ([1]; oral H-FF extract 140 g/kg) [h]	AUC(0-inf) ([1]; oral R-FF extract 140 g/kg) [µg·h/mL]	AUC(0-t) ([1]; oral R-FF extract 140 g/kg) [µg·h/mL]	Cmax ([1]; oral R-FF extract 140 g/kg) [ng/mL]	Tmax ([1]; oral R-FF extract 140 g/kg) [h]	half-life ([1]; oral R-FF extract 140 g/kg) [h]	MRT last ([1]; oral R-FF extract 140 g/kg) [h]	change of T1/2 in H-FF group compared to R-FF group [1]	change of MRT0–t in H-FF group compared to R-FF group [1]	Structure (SMILES)	also measured
slow eliminate rate	–	–	–	–	–	–	–	–	–	–	–	–	–	–	increased	O=C(C=Cc1ccc(O)c(O)c1)OC1CC(O)(C(=O)O)CC(O)C1OC(=O)C=Cc1ccc(O)c(O)c1 (stereo not drawn) [Isochlorogenic acid C, isochlorogenic acid C]	C max ([1]; oral H-FF extract 140 g/kg): 28183.80 ± 3739.61 ng/mL; MRT0–t ([1]; oral H-FF extract 140 g/kg): 16.42 ± 0.84 h; T max ([1]; oral H-FF extract 140 g/kg): 0.33 ± 0.00 h; t 1/2 ([1]; oral H-FF extract 140 g/kg): 22.14 ± 9.73 h; C max ([1]; oral R-FF extract 140 g/kg): 12916.78 ± 3117.99 ng/mL; MRT0–t ([1]; oral R-FF extract 140 g/kg): 14.32 ± 1.56 h; T max ([1]; oral R-FF extract 140 g/kg): 0.33 ± 0.00 h; t 1/2 ([1]; oral R-FF extract 140 g/kg): 20.36 ± 5.22 h
slow eliminate rate	–	401 ± 22	351 ± 16.7	97300 ± 1150	0.33	17.6 ± 1.57	13.2 ± 0.39	242 ± 49.1	170 ± 5.98	67800 ± 3100	0.33	21.9 ± 9.25	11.2 ± 0.53	a little shorter	–	O=C(/C=C/c1ccc(O)c(O)c1)O[C@H]1[C@H](O)C[C@](O)(C(=O)O)C[C@H]1O [Cryptochlorogenic acid, cryptochlorogenic acid]	–
slow eliminate rate	–	455 ± 14.6	–	52300 ± 3010	0.33	16.8 ± 5.09	15.2 ± 0.19	201 ± 7.21	194 ± 6.58	25200 ± 1590	0.33	–	10.9 ± 1.04	–	increased	O=C(C=Cc1ccc(O)c(O)c1)OC1CC(O)(C(=O)O)CC(O)C1OC(=O)C=Cc1ccc(O)c(O)c1 (stereo not drawn) [Isochlorogenic acid B, isochlorogenic acid B]	t 1/2 ([1]; oral R-FF extract 140 g/kg): 9.68 ± 1.36 h

More lines, now with the values behind:

Structure (SMILES)	eliminate rate (judged from t1/2 and MRT values) [1]	double peak phenomena in serum concentration-time curve [1]	AUC(0-inf) ([1]; oral H-FF extract 140 g/kg) [µg·h/mL]	AUC(0-t) ([1]; oral H-FF extract 140 g/kg) [µg·h/mL]	Cmax ([1]; oral H-FF extract 140 g/kg) [ng/mL]	Tmax ([1]; oral H-FF extract 140 g/kg) [h]	half-life ([1]; oral H-FF extract 140 g/kg) [h]	MRT last ([1]; oral H-FF extract 140 g/kg) [h]	AUC(0-inf) ([1]; oral R-FF extract 140 g/kg) [µg·h/mL]	AUC(0-t) ([1]; oral R-FF extract 140 g/kg) [µg·h/mL]	Cmax ([1]; oral R-FF extract 140 g/kg) [ng/mL]	Tmax ([1]; oral R-FF extract 140 g/kg) [h]	half-life ([1]; oral R-FF extract 140 g/kg) [h]	MRT last ([1]; oral R-FF extract 140 g/kg) [h]	change of T1/2 in H-FF group compared to R-FF group [1]	change of MRT0–t in H-FF group compared to R-FF group [1]	also measured
COc1cc(/C=C/C(=O)O)ccc1O [Ferulic acid, ferulic acid]	fast eliminate rate	obvious double peak phenomena	2.25 ± 0.442	1.76 ± 0.224	380 ± 5.89	0.33	3.31 ± 0.68	3.33 ± 0.11	2.14 ± 0.196	0.853 ± 0.0294	253 ± 25.7	0.33	5.07 ± 1.87	4.21 ± 0.11	–	–	–
O=C(/C=C/c1ccc(O)c(O)c1)O[C@@H]1C[C@](O)(C(=O)O)C[C@@H](O)[C@H]1O [Chlorogenic acid, chlorogenic acid]	slow eliminate rate	–	428 ± 41.6	281 ± 10.8	80400 ± 6350	0.33	32.9 ± 4.87	11.1 ± 0.16	236 ± 75.6	167 ± 21.8	75600 ± 3060	0.33	33.4 ± 3.36	10.6 ± 0.82	a little shorter	–	–
C[C@@H]1O[C@@H](OC[C@H]2O[C@@H](Oc3c(-c4ccc(O)c(O)c4)oc4cc(O)cc(O)c4c3=O)[C@H](O)[C@@H](O)[C@@H]2O)[C@H](O)[C@H](O)[C@H]1O [Rutin, rutin]	slow eliminate rate	obvious double peak phenomena	105 ± 9.98	64.6 ± 4.91	7040 ± 429	0.39 ± 0.09	14.3 ± 2.28	22.7 ± 0.82	211 ± 37.9	100 ± 9.13	7430 ± 446	0.33	30.7 ± 14	18.91 ± 0.17	–	increased	–
O=C(N[C@H](CO)[C@H](O)c1ccc([N+](=O)[O-])cc1)C(Cl)Cl [Chloramphenicol (IS), chloramphenicol]	–	–	–	–	–	–	–	–	–	–	–	–	–	–	–	–	Freeze-thaw stability (RE%) ([2]; 3 freeze-thaw cycles (−20 to 20°C)): −4.77%; Short-term stability (RE%) ([2]; room temperature 4 hours): 0.74%; Long-term stability (RE%) ([2]; −20°C 30 days): −2.22%
O=C(O)/C=C/c1ccc(O)c(O)c1 [Caffeic acid, caffeic acid]	slow eliminate rate	obvious double peak phenomena	66.8 ± 12.2	24.1 ± 2.06	4550 ± 235	0.33	78.9 ± 26	12.7 ± 0.38	35.2 ± 9.99	20.2 ± 0.405	4470 ± 311	0.33	32.3 ± 17.6	14.3 ± 0.25	–	–	–
O=C(C=Cc1ccc(O)c(O)c1)OC1CC(O)(C(=O)O)CC(O)C1O (stereo not drawn) [Neochlorogenic acid, neochlorogenic acid]	slow eliminate rate	obvious double peak phenomena	117 ± 15.9	95.7 ± 6.56	24700 ± 3220	0.33	14.7 ± 3.88	10.9 ± 0.44	87 ± 8.34	56 ± 4.22	–	0.33	30.1 ± 6.85	12.5 ± 1.19	a little shorter	–	–
